Assay results as given in ChEMBL document CHEMBL1221217 (Nat Chem Biol, 2008).
Active and inactive are the calls of the source. No cut-off for these calls is given here.

Key:
[1] = target: Potassium voltage-gated channel subfamily A member 1 (Rattus norvegicus) (UniProt P10499); experiment: Activation of KV1.1 expressed in Xenopus laevis oocytes coexpressing Kvbeta1 assessed as increase in steady state current normalized to initial inactivating current by electrophysiology method
[2] = target: Potassium voltage-gated channel subfamily A member 1 (Rattus norvegicus) (UniProt P10499); experiment: Activation of KV1.1 expressed in Xenopus laevis oocytes coexpressing Kvbeta1 W155A mutant assessed as increase in steady state current normalized to initial inactivating current at 500 uM by electrophysiology method; settings: Oocyte
[3] = target: Voltage-gated potassium channel subunit beta-2 (Rattus norvegicus) (UniProt P62483); experiment: Binding affinity to Kvbeta2 assessed as reduction of fluorescence by NADPH fluorescence spectrum based assay; set-up: scale not given: the % may be the effect or the level left
Sequence of Voltage-gated potassium channel subunit beta-2 (Rattus norvegicus) (P62483 whole entry, looked up, the tested form may be a part): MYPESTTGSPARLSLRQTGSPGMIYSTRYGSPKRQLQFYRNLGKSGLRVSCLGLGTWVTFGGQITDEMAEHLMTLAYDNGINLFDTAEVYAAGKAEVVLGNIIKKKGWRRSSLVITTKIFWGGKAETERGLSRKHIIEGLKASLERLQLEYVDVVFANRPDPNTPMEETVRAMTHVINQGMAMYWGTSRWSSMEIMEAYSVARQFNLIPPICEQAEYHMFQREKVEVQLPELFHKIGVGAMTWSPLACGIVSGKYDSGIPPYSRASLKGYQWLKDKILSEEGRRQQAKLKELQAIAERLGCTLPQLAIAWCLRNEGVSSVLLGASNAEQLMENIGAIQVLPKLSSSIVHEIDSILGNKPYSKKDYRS

[4] = Induction of dissociation of KV1.1 T1 domain/rat Kvbeta2 I211R mutant complex at 2 mM by solid phase binding assay
[5] = target: Potassium voltage-gated channel subfamily A member 1 (Rattus norvegicus) (UniProt P10499); experiment: Activation of KV1.1 expressed in Xenopus laevis oocytes coexpressing Kvbeta1 assessed as increase in steady state current normalized to initial inactivating current at 500 uM by electrophysiology method; settings: Oocyte
[6] = target: Potassium voltage-gated channel subfamily A member 1 (Rattus norvegicus) (UniProt P10499); experiment: Activation of KV1.1 expressed in Xenopus laevis oocytes assessed as increase in steady state current normalized to initial inactivating current by electrophysiology method; settings: Oocyte
[7] = Induction of dissociation of KV1.1 T1 domain/rat Kvbeta2 complex by solid phase binding assay
[8] = target: Potassium voltage-gated channel subfamily A member 1 (Rattus norvegicus) (UniProt P10499); experiment: Activation of KV1.1 expressed in Xenopus laevis oocytes coexpressing Kvbeta1 assessed as increase in channel current at 500 uM by electrophysiology method; settings: Oocyte

Sequence of Potassium voltage-gated channel subfamily A member 1 (Rattus norvegicus) (P10499 whole entry, looked up, the tested form may be a part): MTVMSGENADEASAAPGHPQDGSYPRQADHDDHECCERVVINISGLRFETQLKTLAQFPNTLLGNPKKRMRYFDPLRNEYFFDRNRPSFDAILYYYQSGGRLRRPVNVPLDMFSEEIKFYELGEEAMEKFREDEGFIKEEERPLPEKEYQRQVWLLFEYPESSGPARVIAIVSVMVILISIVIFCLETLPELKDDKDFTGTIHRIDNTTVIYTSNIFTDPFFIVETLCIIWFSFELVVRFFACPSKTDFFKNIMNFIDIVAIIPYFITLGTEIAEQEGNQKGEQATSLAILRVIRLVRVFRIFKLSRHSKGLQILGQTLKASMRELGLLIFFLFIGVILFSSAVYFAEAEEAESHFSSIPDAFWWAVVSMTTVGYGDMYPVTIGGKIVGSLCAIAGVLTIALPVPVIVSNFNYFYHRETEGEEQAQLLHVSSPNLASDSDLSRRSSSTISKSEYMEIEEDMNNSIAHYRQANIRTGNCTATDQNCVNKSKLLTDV

C[C@]12CCC(=O)C=C1CC[C@@H]1[C@@H]2C(=O)C[C@@]2(C)[C@H]1CC[C@]2(O)C(=O)CO [CORTISONE]
EC50 [1]: 46 µM
Activity [2]: 93%
Activity [3]: 21%
Activity [4]: inactive
Activity [5]: 84%
Activity [6]: 4.5%
EC50 [7]: 68 µM
Activity [8]: Active
